The values below come from patent US10597388B2, “Pyridazinone herbicides” (FMC CORPORATION, priority 2014, dated 2020).

What all share (format): in vivo
Experiment [1] concerns wheat (winter wheat, Triticum aestivum). As to the kind of experiment: Test C greenhouse herbicide test, pre- and postemergence. The method, boiled down: (§1)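 Seeds sown in loam–sand blend treated preemergence; plants in peat-based medium sprayed postemergence at 2–18 cm (1- to 4-leaf stage); chemicals in non-phytotoxic solvent with surfactant. Greenhouse 13–15 d, then visual rating versus controls on 0–100 scale (0 no effect, 100 complete control).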

A further experiment has as its system soybean (Glycine max). The experiment is described as above. The method, boiled down: as §1
For another experiment, the system named is rice (Oryza sativa). As to the kind of experiment: Test B flooded paddy test. The following applies: 250 g ai/ha, Flood, visual rating on scale of 0 to 100 where 0 is no effect and 100 is complete control, 13 to 15 d after treatment. In outline: (§2)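 Plants grown to the 2-leaf stage. At treatment, pots were flooded to 3 cm above the soil, compound was applied directly to the paddy water, and that depth was held throughout. After 13 to 15 d in the greenhouse, response was rated visually against controls on a 0 (no effect) to 100 (complete control) scale.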

Experiment [2] deals with ducksalad (Heteranthera limosa). As to the kind of experiment: Test B flooded paddy test. Particulars: 250 g ai/ha, Flood, visual rating on scale of 0 to 100 where 0 is no effect and 100 is complete control, 13 to 15 d after treatment. The method, boiled down: as §2
Experiment [3] has as its system sedge, umbrella (small-flower umbrella sedge, Cyperus difformis). As to the kind of experiment: Test B flooded paddy test. Particulars: 250 g ai/ha, Flood, visual rating on scale of 0 to 100 where 0 is no effect and 100 is complete control, 13 to 15 d after treatment. In outline:
as §2

Experiment [4] concerns barnyardgrass (Echinochloa crus-galli). Kind of experiment: Test B flooded paddy test. Particulars: 250 g ai/ha, Flood, visual rating on scale of 0 to 100 where 0 is no effect and 100 is complete control, 13 to 15 d after treatment. In outline: as §2
For experiment [5], the system named is chickweed (common chickweed, Stellaria media). As to the kind of experiment: Test C greenhouse herbicide test, postemergence. The method, boiled down:
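Greenhouse postemergence spray on plants 2–18 cm tall; response judged visually after 13–15 d relative to untreated controls using a 0 (none) to 100 (full control) scale.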

Setting [6] is: Postemergence, 31 g ai/ha, scale 0 to 100 (0 no effect, 100 complete control).
Setting [7] is: Postemergence, 62 g ai/ha, 0 to 100 scale (0 no effect, 100 complete control).
[8] abbreviates: Postemergence, 250 g ai/ha, scale 0 to 100, 0 no effect, 100 complete control, 13 to 15 d.
Setting [9] is: Preemergence, 31 g ai/ha, scale 0 to 100, 0 is no effect, 100 is complete control.
Where [10] appears, read: Preemergence, 62 g ai/ha, scale 0 to 100, 0 is no effect, 100 is complete control.
[11] abbreviates: Preemergence, 125 g ai/ha, scale 0 to 100, 0 is no effect, 100 is complete control.
[12] abbreviates: Preemergence, 250 g ai/ha, scale 0 to 100 (0 no effect, 100 complete control).
Where [13] appears, read: postemergence, 125 g ai/ha, scale 0 to 100, 0 no effect, 100 complete control.
Where [14] appears, read: Postemergence, 125 g ai/ha, scale 0 to 100, 0 is no effect, 100 is complete control.
[15] abbreviates: postemergence, 62 g ai/ha, scale 0 to 100, 0 no effect, 100 complete control.
Setting [16] is: Postemergence, 250 g ai/ha, scale 0 to 100, 0 is no effect, 100 is complete control.
The mark [17] stands for this setting: Postemergence, 16 g ai/ha, scale 0 to 100 (0 no effect, 100 complete control).

As for `Cc1cc(C)c2ccccc2c1-c1c(OS(C)(=O)=O)c(C)nn(C)c1=O` [Compound 154], the “Plant response rating, Wheat” value was found to be 0 in experiment [1] (setting [6]); 5 in experiment [1] (setting [8]); 0 in experiment [1] (setting [9]); 0 in experiment [1] (setting [10]); 0 in experiment [1] (setting [11]). Also, the figures for the “Wheat plant response rating” value in experiment [1] (setting [7]), in experiment [1] (setting [12]) and in experiment [1] (setting [13]) were 5, 30 and 10, respectively. For the same compound, the “Plant response rating, Soybean” value in the experiment with soybean (Glycine max) (setting [6]) is given as 10; in the experiment with soybean (Glycine max) (setting [8]), 25; in the experiment with soybean (Glycine max) (setting [9]) it was 0; with soybean (Glycine max) (setting [10]) it was 5; in the experiment with soybean (Glycine max) (setting [11]) it was 5. Further, the “Soybean plant response rating” value in the experiment on soybean (Glycine max) (setting [7]), in the experiment on soybean (Glycine max) (setting [12]) and in the experiment with soybean (Glycine max) (setting [13]) was 20 throughout. Also, the “Plant response rating, Rice” value in the experiment with rice (Oryza sativa) worked out at 50. In experiment [2], the “Plant response rating, Ducksalad” value is 60. Further, in experiment [3], the “Plant response rating, Sedge, Umbrella” value stood at 80. Also, the “Plant response rating, Barnyardgrass” value in experiment [4] stood at 50. For the same compound, the results for the “Plant response rating, Chickweed” value in experiment [5] (setting [6]) and in experiment [5] (setting [8]) were 90 and 95, respectively. Also, the “Chickweed plant response rating” value in experiment [5] (setting [7]) and in experiment [5] (setting [13]) was 90 throughout.
On to `CC(=O)Oc1c(C#N)nn(C)c(=O)c1-c1c(C)ccc2ccccc12` [Compound 98], for which the “Plant response rating, Wheat” value in experiment [1] (setting [14]) is listed as 15; in experiment [1] (setting [8]) it was 30. Besides, the “Wheat plant response rating” value in experiment [1] (setting [15]) worked out at 10. In addition, the “Plant response rating, Soybean” value in the experiment on soybean (Glycine max) (setting [14]) and in the experiment on soybean (Glycine max) (setting [8]) was 25 in each case. Moreover, in the experiment with soybean (Glycine max) (setting [15]), the “Soybean plant response rating” value was found to be 10. For the same compound, the “Plant response rating, Rice” value in the experiment with rice (Oryza sativa) was found to be 30. For the same compound, the “Plant response rating, Ducksalad” value in experiment [2] amounted to 75. Besides, the “Plant response rating, Sedge, Umbrella” value in experiment [3] is listed as 60. For the same compound, the “Plant response rating, Barnyardgrass” value in experiment [4] was determined as 45. The “Chickweed plant response rating” value in experiment [5] (Postemergence, 31 g ai/ha, 0 to 100 scale (0 no effect, 100 complete control)) came to 95; in experiment [5] (setting [15]), 100. Further, the “Plant response rating, Chickweed” value in experiment [5] (setting [14]) and in experiment [5] (setting [8]) was 100 throughout.
In the case of `Cc1ccc2ccccc2c1-c1c(OC(=O)N2CCOCC2)c(Br)nn(C)c1=O` [Compound 176], the “Plant response rating, Wheat” value in experiment [1] (setting [6]) came to 0; in experiment [1] (setting [16]), 40. Further, the “Wheat plant response rating” value came out at 5 in experiment [1] (setting [7]) and 10 in experiment [1] (setting [13]). For the same compound, the “Plant response rating, Soybean” value with soybean (Glycine max) (setting [6]) came to 5; in the experiment on soybean (Glycine max) (setting [16]) it was 10. Moreover, the “Soybean plant response rating” value is on record as 10 with soybean (Glycine max) (setting [7]) and 15 in the experiment on soybean (Glycine max) (setting [13]). Moreover, the “Plant response rating, Rice” value in the experiment with rice (Oryza sativa) is reported as 0. In addition, the “Plant response rating, Ducksalad” value in experiment [2] is listed as 0. In addition, in experiment [3], the “Plant response rating, Sedge, Umbrella” value is 0. In experiment [4], the “Plant response rating, Barnyardgrass” value turned out to be 0.
For the compound `COC(=O)Oc1cnn(C)c(=O)c1-c1c(C)ccc2ccccc12` [Compound 143], the “Plant response rating, Wheat” value is recorded as 0 in experiment [1] (setting [17]) and 5 in experiment [1] (setting [6]). Also, the figures for the “Wheat plant response rating” value in experiment [1] (setting [7]) and in experiment [1] (setting [13]) were 35 and 15, respectively. For the same compound, the “Plant response rating, Soybean” value in the experiment with soybean (Glycine max) (setting [17]) and in the experiment with soybean (Glycine max) (setting [6]) was 0 each time. For the same compound, the “Soybean plant response rating” value with soybean (Glycine max) (setting [7]) is 15; in the experiment on soybean (Glycine max) (setting [13]), 20. Further, the “Plant response rating, Rice” value with rice (Oryza sativa) was 0. Further, the “Plant response rating, Ducksalad” value in experiment [2] is listed as 0. Also, the “Plant response rating, Sedge, Umbrella” value in experiment [3] came to 0. The “Plant response rating, Barnyardgrass” value in experiment [4] came out at 0. For the same compound, the “Plant response rating, Chickweed” value amounted to 30 in experiment [5] (setting [17]) and 45 in experiment [5] (setting [6]). Besides, the “Chickweed plant response rating” value in experiment [5] (setting [7]) came out at 70; in experiment [5] (setting [13]) it was 80.
As for `CCC(=O)Oc1c(C)nn(C)c(=O)c1-c1ccc(Br)c2ccccc12` [Compound 133], the “Plant response rating, Wheat” value was 25 in experiment [1] (setting [6]); 80 in experiment [1] (setting [8]); 0 in experiment [1] (setting [9]); 0 in experiment [1] (setting [10]); 10 in experiment [1] (setting [11]). For the same compound, the “Wheat plant response rating” value in experiment [1] (setting [7]) amounted to 35; in experiment [1] (setting [12]) it was 40; in experiment [1] (setting [13]), 55. Moreover, the “Plant response rating, Soybean” value was 55 with soybean (Glycine max) (setting [6]); 40 with soybean (Glycine max) (setting [8]); 5 in the experiment with soybean (Glycine max) (setting [9]); 55 with soybean (Glycine max) (setting [10]); 65 in the experiment with soybean (Glycine max) (setting [11]). In addition, the “Soybean plant response rating” value was 40 with soybean (Glycine max) (setting [7]), 80 with soybean (Glycine max) (setting [12]) and 75 in the experiment on soybean (Glycine max) (setting [13]). In addition, the “Plant response rating, Rice” value in the experiment with rice (Oryza sativa) stood at 20. Further, the “Plant response rating, Ducksalad” value in experiment [2] was found to be 0. Moreover, the “Plant response rating, Sedge, Umbrella” value in experiment [3] is recorded as 0. The “Plant response rating, Barnyardgrass” value in experiment [4] is recorded as 0.
Turning to `COc1nn(C)c(=O)c(-c2c(C)ccc3ccccc23)c1OC(C)=O` [Compound 138], the “Plant response rating, Wheat” value amounted to 60 in experiment [1] (setting [6]); 90 in experiment [1] (setting [8]); 0 in experiment [1] (setting [9]); 35 in experiment [1] (setting [10]); 5 in experiment [1] (setting [11]). Besides, the “Wheat plant response rating” value is 40 in experiment [1] (setting [7]), 5 in experiment [1] (setting [12]) and 80 in experiment [1] (setting [13]). Besides, the “Plant response rating, Soybean” value in the experiment on soybean (Glycine max) (setting [6]) amounted to 10; with soybean (Glycine max) (setting [8]), 25; in the experiment with soybean (Glycine max) (setting [9]), 0; with soybean (Glycine max) (setting [10]), 0; in the experiment with soybean (Glycine max) (setting [11]), 20. In addition, the figures for the “Soybean plant response rating” value with soybean (Glycine max) (setting [7]), in the experiment with soybean (Glycine max) (setting [12]) and in the experiment on soybean (Glycine max) (setting [13]) were 10, 15 and 10, respectively. The “Plant response rating, Rice” value with rice (Oryza sativa) is given as 0. The “Plant response rating, Ducksalad” value in experiment [2] came to 0. In experiment [3], the “Plant response rating, Sedge, Umbrella” value was determined as 0. The “Plant response rating, Barnyardgrass” value in experiment [4] is 0.
For `COC(=O)Oc1c(Br)nn(C)c(=O)c1-c1c(C)ccc2ccccc12` [Compound 137], the “Plant response rating, Wheat” value in experiment [1] (setting [6]) came to 75; in experiment [1] (setting [8]), 95; in experiment [1] (setting [9]), 15; in experiment [1] (setting [10]), 80; in experiment [1] (setting [11]) it was 90. Further, the “Wheat plant response rating” value in experiment [1] (setting [7]), in experiment [1] (setting [12]) and in experiment [1] (setting [13]) was 90 in each case. For the same compound, the “Plant response rating, Soybean” value in the experiment with soybean (Glycine max) (setting [6]) turned out to be 10; in the experiment with soybean (Glycine max) (setting [8]), 20; in the experiment with soybean (Glycine max) (setting [9]), 30; in the experiment with soybean (Glycine max) (setting [10]), 20; with soybean (Glycine max) (setting [11]), 40. Also, the results for the “Soybean plant response rating” value in the experiment on soybean (Glycine max) (setting [7]), in the experiment with soybean (Glycine max) (setting [12]) and in the experiment on soybean (Glycine max) (setting [13]) were 10, 30 and 15, respectively. The “Plant response rating, Rice” value with rice (Oryza sativa) worked out at 0. The “Plant response rating, Ducksalad” value in experiment [2] came out at 40. Further, the “Plant response rating, Sedge, Umbrella” value in experiment [3] worked out at 65. For the same compound, the “Plant response rating, Barnyardgrass” value in experiment [4] turned out to be 25.
On to `COc1nn(C)c(=O)c(-c2c(C)c(C)cc3ccccc23)c1O` [Compound 46, 4-(2,3-dimethyl-1-naphthalenyl)-5-hydroxy-6-methoxy-2-methyl-3(2H)-pyridazinone], for which the plant injury at 250 g/ha in the experiment on rice (Oryza sativa) (Oryza sativa, 360 h, read-out: Plant response rating, Rice) worked out at 0%. Further, the pest or weed control at 250 g/ha in experiment [2] (Heteranthera limosa, 360 h, read-out: Plant response rating, Ducksalad) is 0%; in experiment [3] (Cyperus difformis, 360 h, read-out: Plant response rating, Sedge, Umbrella), 0%; in experiment [4] (Echinochloa crus-galli, 360 h, read-out: Plant response rating, Barnyardgrass) it was 0%.
